PubChem BioAssay AID1963838 (Molecular Pharmacology Branch, DTP, NCI, 2024)

Test system: 855422-203-R-J1-PDC complex spheroid viability
Assay: Anticancer human tumor 855422-203-R-J1-PDC patient-derived bladder carcinoma cell line growth inhibition [POLQ]
Settings: for IC50: curve of first compound; for viability, T/C: stronger effect = lower value
Procedure: Multicellular complex tumor spheroid response to Polymerase (POL) inhibitors (novobiocin, ART-558, RP6685) in combination with a variety of drugs and investigational agents in selected tumor cell lines
The POL inhibitors (novobiocin, ART-558, and RP6685) were evaluated both individually and in combination with standard of care and investigational anticancer small molecules within a complex spheroid model of solid tumors. . Complex spheroids include a stromal component modeled by human endothelial cells (HUVEC) and fibroblasts modeled by human mesenchymal stem cells (MSCs). The concentration ranges selected for each drug and investigational agent were based upon clinically achievable concentrations if the clinical Cmax of the agent was known.
Compounds. The drugs and investigational agents: novobiocin (NSC847541), ART-558 (NSC835418), RP-6685 (NSC848927), peposertib (NSC802822), ceralasertib (NSC780249), elimusertib (NSC800525), camonsertib (NSC841442), AZD-1390 (NSC803789), olaparib (NSC753686), talazoparib (NSC767125), rucaparib (NSC756644), sotorasib (NSC818433), MRTX-1133 (NSC836407), SN-38 (NSC673596), topotecan (NSC609699), epotoside (NSC141540), doxorubicin (NSC123127), gemcitabine (NSC613327), 5-fluorouracil (NSC19893), paclitaxel (NSC125973), vemurafenib (NSC761431), MSA-2 (NSC828583), SN-011 (NSC837082), adavosertib (NSC754352), prexasertib (NSC758257), carboplatin (NSC241240) and oxaliplatin (NSC266046), were obtained from the National Cancer Institute (NCI) Developmental Therapeutics Program Chemical Repository (21). The FDA-approved anticancer drug set is available from the Developmental Therapeutics Program at https://dtp.cancer.gov/organization/dscb/obtaining/. […] The stock solutions were prepared in dimethyl sulfoxide (DMSO, Sigma-Aldrich, St. Louis, MO, cat. D2650), except for the platinum compounds which were prepared in saline (Quality Biological, Gaithersburg, MD, cat. 114-055-101), at 800-fold the tested concentration and stored at -70 degrees C prior to their use. All drugs and investigational agents were tested over a range starting from a high concentration at or near the clinical Cmax and decreasing in half-log increments. If the clinical Cmax for an agent had not been determined, the highest concentration tested was 10 microM, except for SN-38, which was tested at a high concentration of 1 microM.
Cell Culture. All cells were maintained in an incubator at 37 degrees C and 5% CO2 with 95% humidity. The PDC lines were cultured according to standard operating procedures established by the NCI PDMR (https://pdmr.cancer.gov). Table 3 of the manuscript, lists the cell lines along with the number of the three cell types plated to form the mct-spheroids and media for tumor cell growth. After thawing, all PDC lines, except 997537-175-T-J1-PDC and 415267-285-R-J2-PDC, were cultured in Matrigel-coated flasks prepared with a working solution of 1X Ham's F-12 nutrient mix, without supplementation (Thermo Fisher Scientific, cat. 11765054), 100 U/mL penicillin-streptomycin (Thermo Fisher Scientific, cat. 15140122), and 2.5% Matrigel (Corning Inc., Corning, NY, cat. 354248) for the first three passages. The two PDC lines 997537-175-T-J1-PDC and 415267-285-R-J2-PDC were cultured on uncoated flasks. The 857933-349-R-J2-PDC line was cultured in 6C/Colon 1B media containing advanced DMEM/F-12 (Thermo Fisher Scientific, cat. 12634028), 10 mM HEPES (Thermo Fisher Scientific, cat. 15630080), 1X GlutaMAX supplement (Thermo Fisher Scientific, cat. 35050061), 0.1 mg/mL primocin (InvivoGen, San Diego, CA, cat. ant-pm-2), 10% defined fetal bovine serum, heat inactivated (HyClone Laboratories Inc., Logan, UT, cat. SH30070.03HI), 50% L-WRN conditioned media (ATCC, cat. CRL-3276), 1.25 mM N-Acetyl-L-cysteine (Sigma-Aldrich, cat. A9165), 10 mM nicotinamide (Sigma-Aldrich, cat. N0636), 1X B-27 supplement (Thermo Fisher Scientific, cat. 17504044), 1X N-2 supplement (Thermo Fisher Scientific, cat. […]
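Further: spheroids exposed to compounds for seven days before readout.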

In the case of `CC(=O)O[C@H]1C(=O)[C@@]2(C)[C@H]([C@H](OC(=O)c3ccccc3)[C@]3(O)C[C@H](OC(=O)[C@H](O)[C@@H](NC(=O)c4ccccc4)c4ccccc4)C(C)=C1C3(C)C)[C@]1(OC(C)=O)CO[C@@H]1C[C@@H]2O` + COC1C(OC(N)=O)C(O)C(Oc2ccc3c(O)c(NC(=O)c4ccc(O)c(CC=C(C)C)c4)c(=O)oc3c2C)OC1(C)C, the IC50 (second compound 0.0316 µM) is reported as under 9.49 nM, the IC50 (second compound 0.1 µM) is reported as under 9.49 nM and the IC50 (second compound 0.316 µM) is reported as under 9.49 nM. For the same compound, the IC50 (second compound 1 µM) was under 9.49 nM, the IC50 (second compound 3.16 µM) was under 9.49 nM and the IC50 (second compound 10 µM) was under 9.49 nM. For the same compound, the viability, T/C (second compound 0.0316 µM, first compound 0.00949 µM) was 5.68%, the viability, T/C (second compound 0.0316 µM, first compound 0.03 µM) was 5.82% and the viability, T/C (second compound 0.0316 µM, first compound 0.0949 µM) was 5%. The viability, T/C (second compound 0.0316 µM, first compound 0.3 µM) was 6.46%, the viability, T/C (second compound 0.0316 µM, first compound 0.949 µM) was 5.84% and the viability, T/C (second compound 0.0316 µM, first compound 3 µM) was 5.17%. For the same compound, the viability, T/C (second compound 0.1 µM, first compound 0.00949 µM) was 5.77%, the viability, T/C (second compound 0.1 µM, first compound 0.03 µM) was 6.65% and the viability, T/C (second compound 0.1 µM, first compound 0.0949 µM) was 5.15%. It also gave a viability, T/C (second compound 0.1 µM, first compound 0.3 µM) of 4.93%, a viability, T/C (second compound 0.1 µM, first compound 0.949 µM) of 5.98% and a viability, T/C (second compound 0.1 µM, first compound 3 µM) of 4.74%. For the same compound, the viability, T/C (second compound 0.316 µM, first compound 0.00949 µM) was 8.12%, the viability, T/C (second compound 0.316 µM, first compound 0.03 µM) was 6.43% and the viability, T/C (second compound 0.316 µM, first compound 0.0949 µM) was 5.94%. It also gave a viability, T/C (second compound 0.316 µM, first compound 0.3 µM) of 4.73%, a viability, T/C (second compound 0.316 µM, first compound 0.949 µM) of 4.96% and a viability, T/C (second compound 0.316 µM, first compound 3 µM) of 5.68%. It also gave a viability, T/C (second compound 1 µM, first compound 0.00949 µM) of 7.33%, a viability, T/C (second compound 1 µM, first compound 0.03 µM) of 6.18% and a viability, T/C (second compound 1 µM, first compound 0.0949 µM) of 5.96%. The viability, T/C (second compound 1 µM, first compound 0.3 µM) was 5.56%, the viability, T/C (second compound 1 µM, first compound 0.949 µM) was 6.11% and the viability, T/C (second compound 1 µM, first compound 3 µM) was 6.43%. For the same compound, the viability, T/C (second compound 3.16 µM, first compound 0.00949 µM) was 6.84%, the viability, T/C (second compound 3.16 µM, first compound 0.03 µM) was 6.73% and the viability, T/C (second compound 3.16 µM, first compound 0.0949 µM) was 5.34%. For the same compound, the viability, T/C (second compound 3.16 µM, first compound 0.3 µM) was 5.02%, the viability, T/C (second compound 3.16 µM, first compound 0.949 µM) was 5.62% and the viability, T/C (second compound 3.16 µM, first compound 3 µM) was 6.32%. It also gave a viability, T/C (second compound 10 µM, first compound 0.00949 µM) of 7.25%, a viability, T/C (second compound 10 µM, first compound 0.03 µM) of 6.33% and a viability, T/C (second compound 10 µM, first compound 0.0949 µM) of 5.51%. For the same compound, the viability, T/C (second compound 10 µM, first compound 0.3 µM) was 5.78%, the viability, T/C (second compound 10 µM, first compound 0.949 µM) was 5.59% and the viability, T/C (second compound 10 µM, first compound 3 µM) was 6.4%.
